Data published in doi:10.1101/2024.12.03.626679, “Structure of the SMYD2-PARP1 Complex Reveals Both Productive and Allosteric Modes of Peptide Binding” (bioRxiv, 2024).
No end group written: not given here.

What was measured:
[1] = biological target: T1, SMYD2-F184A / PARP1(518–1014) interaction (Homo sapiens, UniProt Q9NRG4, F184A); experiment: ELISA inhibition of SMYD2-PARP1(518–1014) interaction by PARP1 peptide, F184A mutant; conditions: SMYD2 pre-incubated with peptide, four-parameter logistic fit, triplicate, read-out: IC50 of inhibition of F184A mutant binding to coated PARP1 protein
T1 construct: Full-length human SMYD2 (residues 1–433) (SMYD2-WT); 6xHis-SUMO (N, cleaved yes); made in house
T1 sequence (Q9NRG4 whole entry F184A, the tested form may be a part): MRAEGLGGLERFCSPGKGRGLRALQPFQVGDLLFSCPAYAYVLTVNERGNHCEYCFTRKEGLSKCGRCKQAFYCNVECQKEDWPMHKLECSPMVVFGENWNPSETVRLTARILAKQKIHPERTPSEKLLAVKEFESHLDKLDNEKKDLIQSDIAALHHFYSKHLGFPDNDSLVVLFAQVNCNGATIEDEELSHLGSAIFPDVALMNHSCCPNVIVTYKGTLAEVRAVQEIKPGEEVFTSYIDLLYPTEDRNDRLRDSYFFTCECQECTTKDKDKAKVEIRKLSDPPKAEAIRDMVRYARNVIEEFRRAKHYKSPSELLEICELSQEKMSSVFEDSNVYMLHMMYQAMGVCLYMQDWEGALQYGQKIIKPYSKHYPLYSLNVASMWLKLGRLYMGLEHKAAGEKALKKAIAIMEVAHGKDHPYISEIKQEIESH
Experimental: ELISA solid-phase protein binding experiments were performed according to the previously described protocol ([22]). ELISA plates were prepared by coating PARP1, H3, or H4 onto the wells in a coating buffer containing 10 mM HEPES pH 7.5, 0.1 M KCl, and 3 mM MgCl2. After blocking the plates with 1% BSA, binding experiments were performed by adding different concentrations of SMYD2 proteins into the wells. For PARP1 peptide inhibition experiments, SMYD2 proteins were pre-incubated with the PARP1 peptide before being added to the wells. Bound SMYD2 proteins were probed with the anti-SMYD2 antibody (ab108217, Abcam), and the amount of binding was quantified using an HRP-conjugated secondary antibody (ab6721, Abcam) that generated a color signal from oxidizing the substrate 2,2′-azino-bis(3-ethylbenzthiazoline sulfonic acid). The absorbance of signals was measured at 420 nm using a microplate reader at 2-minute intervals for 15 minutes. The rate of change in absorbance obtained by linear regression was used to quantify the binding. IC50 and the concentration required for 50% saturation were obtained by fitting binding data using a four-parameter logistic regression model. For reciprocal binding experiments, SMYD2 proteins were coated onto the wells and bound PARP1 was detected by the anti-PARP1 antibody (ab191217, Abcam). All binding experiments were performed in triplicate.

PARP1(518–1014) = experiment: Methyltransferase activity of SMYD2 proteins on PARP1(518–1014), MTase-Glo assay; assay type: biochemical, human; conditions: versus wild-type SMYD2
Experimental: Steady-state enzyme kinetics was carried out using the MTase-Glo methyltransferase assay according to the manufacturer’s instructions (Promega). […] After incubating the reactions with the MTase-Glo reagent and MTase-Glo Detection Solution, the amount of produced AdoHcy was determined by measuring luminescent signals using a microplate reader. The reactions were quantified using an AdoHcy standard curve that correlates the luminescence intensity to the AdoHcy concentration. Enzyme kinetic constants (KM, kcat, and Hill coefficient) were determined using initial velocity measurements at varying substrate concentrations by fitting them to a standard Michaelis-Menten kinetics model and the Hill equation.

histone H4 = experiment: Antibody-based methyltransferase assay on H4; assay type: biochemical; conditions: versus wild-type SMYD2; 30°C overnight, Western blot
Experimental: (§1) An antibody-based methyltransferase assay was carried out similarly to a previously described method ([29]). Reactions were performed by incubating SMYD2 proteins with H3 or H4 in the presence of AdoMet at 30°C overnight in a reaction buffer containing 50 mM Tris pH 8.5, 25 mM NaCl, 5% glycerol, and 2 mM DTT. Lysine methylation was detected by Western blot analysis using antibodies against mono-, di-, and trimethylated lysine (ab23366 & ab76118, Abcam). Enzymatic activities were quantified based on chemiluminescence using a CCD gel imager.

histone H3 = experiment: Antibody-based methyltransferase assay on H3; assay type: biochemical; conditions: versus wild-type SMYD2; 30°C overnight, Western blot
Experimental: as §1

Row | IC50 [1] [nM] | methylation level of PARP1 protein (PARP1(518–1014)) | methylation of H4 (histone H4) | methylation of H3 (histone H3) | Substance
1 | ~153 | – | – | – | RMKLTLKGGAAVD [PARP1 peptide]
2 | – | notable increase | marked increase | marked increase | L351A/W356A mutant: SMYD2 secondary-binding-site mutant targeting both subsites M and L
3 | – | abolishes the methyltransferase activity | abolishes the methyltransferase activity | abolishes the methyltransferase activity | F184A mutant: SMYD2 mutant targeting the target lysine access channel at the active site
